Results: ChEMBL document CHEMBL2074266, “Molecular cloning and characterization of multispecific organic anion transporter 4 expressed in the placenta” (J Biol Chem, 2000)

Tests used:
[1] = molecular target: T1, Solute carrier family 22 member 11 (Homo sapiens, UniProt Q9NSA0); assay: TP_TRANSPORTER: inhibition of E1S uptake (E1S: 0.05 uM, Ibuprofen: 500 uM) in Xenopus laevis oocytes; assay type: functional, cell-based; conditions: oocyte
T1 sequence (Q9NSA0 whole entry): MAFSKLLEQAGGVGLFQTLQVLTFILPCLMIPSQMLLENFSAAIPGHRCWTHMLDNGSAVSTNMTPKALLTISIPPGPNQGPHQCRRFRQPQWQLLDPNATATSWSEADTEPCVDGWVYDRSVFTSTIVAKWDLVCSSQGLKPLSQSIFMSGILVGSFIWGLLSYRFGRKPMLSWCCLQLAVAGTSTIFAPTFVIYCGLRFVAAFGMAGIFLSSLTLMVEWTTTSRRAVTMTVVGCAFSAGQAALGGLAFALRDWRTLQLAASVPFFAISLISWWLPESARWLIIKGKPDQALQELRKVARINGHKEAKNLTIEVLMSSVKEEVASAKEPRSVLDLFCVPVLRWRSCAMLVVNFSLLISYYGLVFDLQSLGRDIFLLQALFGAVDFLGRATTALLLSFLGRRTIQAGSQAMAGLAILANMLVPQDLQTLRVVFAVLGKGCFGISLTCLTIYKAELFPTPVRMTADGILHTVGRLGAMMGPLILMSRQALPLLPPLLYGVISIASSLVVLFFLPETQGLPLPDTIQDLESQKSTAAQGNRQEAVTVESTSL

[2] = molecular target: T1, Solute carrier family 22 member 11; assay: TP_TRANSPORTER: inhibition of E1S uptake (E1S: 0.05 uM, BSP: 100 uM) in Xenopus laevis oocytes; assay type: functional, cell-based; conditions: oocyte
[3] = molecular target: T1, Solute carrier family 22 member 11; assay: (§1) TP_TRANSPORTER: uptake in Xenopus laevis oocytes; assay type: functional, cell-based; conditions: oocyte
[4] = molecular target: T1, Solute carrier family 22 member 11; assay: TP_TRANSPORTER: inhibition of E1S uptake (E1S: 0.05 uM, DHEAS: 500 uM) in Xenopus laevis oocytes; assay type: functional, cell-based; conditions: oocyte
[5] = molecular target: T1, Solute carrier family 22 member 11; assay: TP_TRANSPORTER: inhibition of E1S uptake (E1S: 0.05 uM, Estradiol-3-glucuronide: 500 uM) in Xenopus laevis oocytes; assay type: functional, cell-based; conditions: oocyte
[6] = molecular target: T1, Solute carrier family 22 member 11; assay: TP_TRANSPORTER: inhibition of E1S uptake (E1S: 0.05 uM, p-Nitrophenyl glucuronide: 500 uM) in Xenopus laevis oocytes; assay type: functional, cell-based; conditions: oocyte
[7] = molecular target: T1, Solute carrier family 22 member 11; assay: TP_TRANSPORTER: inhibition of E1S uptake (E1S: 0.05 uM, 4-methylumbelliferyl sulfate: 500 uM) in Xenopus laevis oocytes; assay type: functional, cell-based; conditions: oocyte
[8] = molecular target: T1, Solute carrier family 22 member 11; assay: TP_TRANSPORTER: inhibition of E1S uptake (E1S: 0.05 uM, Bumetanide: 500 uM) in Xenopus laevis oocytes; assay type: functional, cell-based; conditions: oocyte
[9] = molecular target: T1, Solute carrier family 22 member 11; assay: TP_TRANSPORTER: inhibition of E1S uptake (E1S: 0.05 uM, Indomethacin: 500 uM) in Xenopus laevis oocytes; assay type: functional, cell-based; conditions: oocyte
[10] = molecular target: T1, Solute carrier family 22 member 11; assay: TP_TRANSPORTER: inhibition of E1S uptake (E1S: 0.05 uM, Diclofenac: 500 uM) in Xenopus laevis oocytes; assay type: functional, cell-based; conditions: oocyte
[11] = molecular target: T1, Solute carrier family 22 member 11; assay: TP_TRANSPORTER: inhibition of E1S uptake (E1S: 0.05 uM, Corticosterone: 500 uM) in Xenopus laevis oocytes; assay type: functional, cell-based; conditions: oocyte
[12] = molecular target: T1, Solute carrier family 22 member 11; assay: TP_TRANSPORTER: inhibition of E1S uptake (E1S: 0.05 uM, beta-estradiol sulfate: 500 uM) in Xenopus laevis oocytes; assay type: functional, cell-based; conditions: oocyte
[13] = molecular target: T1, Solute carrier family 22 member 11; assay: TP_TRANSPORTER: inhibition of E1S uptake (E1S: 0.05 uM, 4-methylumbeliferone glucuronide: 500 uM) in Xenopus laevis oocytes; assay type: functional, cell-based; conditions: oocyte
[14] = molecular target: T1, Solute carrier family 22 member 11; assay: TP_TRANSPORTER: inhibition of E1S uptake (E1S: 0.05 uM, alpha-naphthyl beta-D-glucuronide: 500 uM) in Xenopus laevis oocytes; assay type: functional, cell-based; conditions: oocyte
[15] = molecular target: T1, Solute carrier family 22 member 11; assay: TP_TRANSPORTER: inhibition of E1S uptake (E1S: 0.05 uM, Glutarate: 500 uM) in Xenopus laevis oocytes; assay type: functional, cell-based; conditions: oocyte
[16] = molecular target: T1, Solute carrier family 22 member 11; assay: TP_TRANSPORTER: inhibition of E1S uptake (E1S: 0.05 uM, Acetaminophen glucuronide: 500 uM) in Xenopus laevis oocytes; assay type: functional, cell-based; conditions: oocyte
[17] = molecular target: T1, Solute carrier family 22 member 11; assay: TP_TRANSPORTER: inhibition of E1S uptake (E1S: 0.05 uM, Furosemide: 500 uM) in Xenopus laevis oocytes; assay type: functional, cell-based; conditions: oocyte
[18] = molecular target: T1, Solute carrier family 22 member 11; assay: TP_TRANSPORTER: inhibition of E1S uptake (E1S: 0.05 uM, beta-Estradiol: 500 uM) in Xenopus laevis oocytes; assay type: functional, cell-based; conditions: oocyte
[19] = substrate: [H][C@@]12CC=C3C[C@@H](OS(=O)(=O)O)CC[C@]3(C)[C@@]1([H])CC[C@]1(C)C(=O)CC[C@@]21[H]; assay: as §1; assay type: functional, cell-based, Oocyte
[20] = substrate: C[C@]12CC[C@@H]3c4ccc(OS(=O)(=O)O)cc4CC[C@H]3[C@@H]1CCC2=O; assay: as §1; assay type: functional, cell-based, Oocyte

In the case of `CC(C)Cc1ccc(C(C)C(=O)O)cc1` (stereo unspecified) [IBUPROFEN], the Activity [1] is reported as “inhibitor [(at a rough estimate) 10 % of control]”.

With `O=C1OC(c2ccc(O)c(S(=O)(=O)[O-])c2)(c2ccc(O)c(S(=O)(=O)[O-])c2)c2c(Br)c(Br)c(Br)c(Br)c21.[Na+].[Na+]` [SULFOBROMOPHTHALEIN SODIUM] the Activity [2] was “inhibitor [(at a rough estimate) <5 % of control]”.

In the case of `C[C@@H]1Cc2c(Cl)cc(C(=O)N[C@@H](Cc3ccccc3)C(=O)O)c(O)c2C(=O)O1` [3R14S-OCHRATOXIN A], the Activity [3] is reported as “substrate [+]”.

With `C[C@]12CC[C@H](OS(=O)(=O)O)CC1=CC[C@@H]1[C@@H]2CC[C@]2(C)C(=O)CC[C@@H]12` [PRASTERONE SULFURIC ACID] the Activity [4] was “inhibitor [(at a rough estimate) 15 % of control]”.

`C[C@]12CC[C@@H]3c4ccc(O[C@@H]5O[C@H](C(=O)O)[C@@H](O)[C@H](O)[C@H]5O)cc4CC[C@H]3[C@@H]1CC[C@@H]2O` was tested, and the Activity [5] was “is not an inhibitor [-]”.

For `O=C(O)[C@H]1O[C@@H](Oc2ccc([N+](=O)[O-])cc2)[C@H](O)[C@@H](O)[C@@H]1O`, the Activity [6] was “is not an inhibitor [-]”.

For `Cc1cc(=O)oc2cc(OS(=O)(=O)O)ccc12`, the Activity [7] was “inhibitor [(at a rough estimate) 40 % of control]”.

With `CCCCNc1cc(C(=O)O)cc(S(N)(=O)=O)c1Oc1ccccc1` [BUMETANIDE] the Activity [8] was “inhibitor [(at a rough estimate) 15 % of control]”.

In the case of `COc1ccc2c(c1)c(CC(=O)O)c(C)n2C(=O)c1ccc(Cl)cc1` [INDOMETHACIN], the Activity [9] is reported as “inhibitor [(at a rough estimate) 5 % of control]”.

In the case of `O=C(O)Cc1ccccc1Nc1c(Cl)cccc1Cl` [DICLOFENAC], the Activity [10] is reported as “inhibitor [(at a rough estimate) 5 % of control]”.

`C[C@]12C[C@H](O)[C@H]3[C@@H](CCC4=CC(=O)CC[C@@]43C)[C@@H]1CC[C@@H]2C(=O)CO` [CORTICOSTERONE] was tested, and the Activity [11] was “inhibitor [(at a rough estimate) 30 % of control]”.

In the case of `Nc1ccc(C(=O)NCC(=O)O)cc1` [AMINOHIPPURIC ACID], the Activity [3] is reported as “substrate [+]”.

In the case of `C[C@]12CC[C@@H]3c4ccc(OS(=O)(=O)O)cc4CC[C@H]3[C@@H]1CC[C@@H]2O`, the Activity [12] is reported as “inhibitor [(at a rough estimate) 25 % of control]”.

`O=C(O)[C@H]1O[C@@H](OCc2cc(=O)oc3cc(O)ccc23)[C@H](O)[C@@H](O)[C@@H]1O` was tested, and the Activity [13] was “is not an inhibitor [-]”.

With `O=C(O)[C@H]1O[C@@H](Oc2cccc3ccccc23)[C@H](O)[C@@H](O)[C@@H]1O` the Activity [14] was “is not an inhibitor [-]”.

For `O=C(O)CCCC(=O)O` [GLUTARATE], the Activity [15] was “is not an inhibitor [-]”.

In the case of `CC(=O)Nc1ccc(O[C@@H]2O[C@H](C(=O)O)[C@@H](O)[C@H](O)[C@H]2O)cc1` [ACETAMINOPHEN GLUCURONIDE], the Activity [16] is reported as “is not an inhibitor [-]”.

`NS(=O)(=O)c1cc(C(=O)O)c(NCc2ccco2)cc1Cl` [FUROSEMIDE] was tested, and the Activity [17] was “inhibitor [(at a rough estimate) 5 % of control]”.

With `C[C@]12CC[C@@H]3c4ccc(O)cc4CC[C@H]3[C@@H]1CC[C@@H]2O` [ESTRADIOL] the Activity [18] was “is not an inhibitor [-]”.

B1: Solute carrier family 22 member 11 (Homo sapiens) (protein)
chain: MAFSKLLEQAGGVGLFQTLQVLTFILPCLMIPSQMLLENFSAAIPGHRCWTHMLDNGSAVSTNMTPKALLTISIPPGPNQGPHQCRRFRQPQWQLLDPNATATSWSEADTEPCVDGWVYDRSVFTSTIVAKWDLVCSSQGLKPLSQSIFMSGILVGSFIWGLLSYRFGRKPMLSWCCLQLAVAGTSTIFAPTFVIYCGLRFVAAFGMAGIFLSSLTLMVEWTTTSRRAVTMTVVGCAFSAGQAALGGLAFALRDWRTLQLAASVPFFAISLISWWLPESARWLIIKGKPDQALQELRKVARINGHKEAKNLTIEVLMSSVKEEVASAKEPRSVLDLFCVPVLRWRSCAMLVVNFSLLISYYGLVFDLQSLGRDIFLLQALFGAVDFLGRATTALLLSFLGRRTIQAGSQAMAGLAILANMLVPQDLQTLRVVFAVLGKGCFGISLTCLTIYKAELFPTPVRMTADGILHTVGRLGAMMGPLILMSRQALPLLPPLLYGVISIASSLVVLFFLPETQGLPLPDTIQDLESQKSTAAQGNRQEAVTVESTSL
B1 showed a Km [19] of 0.63 µM and a Km [20] of 1.01 µM.
